The values below come from patent US5547960A (Mayo Foundation for Medical Education and Research, priority 1994, dated 1996).

Like-named read-outs stand apart in the source and are kept apart here.

The test system of data set [1] is AChE. Conditions: relative to (±)-huperzine A; U.S. Pat. No. 4,929,731; cited from earlier work.
Another data set has as its system mice. Conditions: G. P. Vincent et al., 1987; cited from earlier work.
The test system of a further data set is squirrel monkeys. Conditions: G. P. Vincent et al., 1987; cited from earlier work.
A further data set deals with myasthenia gravis. Conditions: 128 patients suffering from myasthenia gravis; Y. S. Cheng, 1986; cited from earlier work.
Another data set deals with T1, FBS AChE (Bos taurus, UniProt P23795).
T1 construct: FBS AChE; from tissue; host or cells: fetal bovine serum (FBS read as this abbreviation)
T1 sequence (P23795 31-613): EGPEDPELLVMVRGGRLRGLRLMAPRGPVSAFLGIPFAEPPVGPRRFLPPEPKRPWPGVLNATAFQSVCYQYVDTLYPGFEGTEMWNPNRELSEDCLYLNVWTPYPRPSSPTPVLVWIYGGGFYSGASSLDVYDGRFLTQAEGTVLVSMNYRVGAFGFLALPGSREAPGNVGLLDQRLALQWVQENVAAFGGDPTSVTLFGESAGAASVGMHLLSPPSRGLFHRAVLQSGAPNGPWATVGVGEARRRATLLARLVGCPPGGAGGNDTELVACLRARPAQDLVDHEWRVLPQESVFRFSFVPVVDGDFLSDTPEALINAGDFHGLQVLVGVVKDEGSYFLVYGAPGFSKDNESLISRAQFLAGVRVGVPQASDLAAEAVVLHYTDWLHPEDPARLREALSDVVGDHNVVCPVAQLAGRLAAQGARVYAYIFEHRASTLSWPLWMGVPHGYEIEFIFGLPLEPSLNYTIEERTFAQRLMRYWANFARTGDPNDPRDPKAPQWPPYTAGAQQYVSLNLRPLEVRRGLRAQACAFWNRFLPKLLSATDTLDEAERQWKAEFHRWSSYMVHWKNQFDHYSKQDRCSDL
As to the kind of experiment: Inhibition of AChE (dissociation constant Ki, procedure of Y. Ashani et al.). Type of data set: biochemical.

Data set [2] deals with acetylcholinesterase (ACHE). Conditions: cited from earlier work.
The next data set relates to Alzheimer's disease. Conditions: K. L. Davis, NIA meeting, Jan. 8-10, 1990; cited from earlier work.
Data set [3] deals with AChE. Conditions: 0.65 mg/kg i.m., cited from earlier work.
[4] abbreviates: procedure of Y. Ashani et al., Molecular Pharmacol., 45, 555 (1994), read-out: FBS AChE Ki, dissociation constant for inhibition of AChE.

Source text for FBS AChE: *Dissociation constant (Ki) for inhibition of AChE determined

On to `CC=C1C2C=C(C)CC1(CN)c1ccc(=O)[nH]c1C2` (stereo not shown), for which the “times less potent than (±)-huperzine A as an inhibitor of AChE” value in the data set on AChE [1] was “about 166 times”. Consider `CC=C1C2C=C(C)CC1(N)c1ccc(=O)[nH]c1C2` (single isomer, unassigned) [huperzine A], for which the “cognition enhancement in mice” value with mice was “effective cognition enhancer”. In addition, the “cognition enhancement in squirrel monkeys” value in the data set with squirrel monkeys is on record as “effective cognition enhancer”. Also, in the data set on myasthenia gravis, the “cases in which clinical manifestations of myasthenia gravis are controlled” value is recorded as 99%. For `C=CCC1c2[nH]c(=O)ccc2C2(N)CC(C)=CC1/C2=C\C` (stereo not shown) [Compound 8a, (11E)-10-Allyl-5-amino-11-ethylidene-5,6,9,10-tetrahydro-7-methyl-5,9-methanocycloocta[b]pyridin-5(1H)-one], at FBS AChE (setting [4]), the Ki was 275 µM.

`C/C=C1\C2C=C(C)CC1(N)c1ccc(=O)[nH]c1C2C` (stereo not shown) [Compound 8b, (11E)-5-Amino-11-ethylidene-5,6,9,10-tetrahydro-7,10-dimethyl-5,9-methanocycloocta[b]pyridin-2(1H)-one]: at FBS AChE (setting [4]), the Ki was found to be 0.008 ± 0.002 µM. `C/C=C1\C2C=C(C)CC1(N)c1ccc(=O)[nH]c1C2CC` (stereo not shown) [Compound 8c, (11E)-5-Amino-10-ethyl-11-ethylidene-5,6,9,10-tetrahydro-7-methyl-5,9-methanocycloocta[b]pyridin-2(1H)-one] showed an inhibition constant (Ki) at FBS AChE of 2.04 µM. For `C/C=C1\C2C=C(C)CC1(N)c1ccc(=O)[nH]c1C2CCC` (stereo not shown) [Compound 8d, (11E)-5-Amino-11-ethylidene-5,6,9,10-tetrahydro-7-methyl-10-propyl-5,9-methanocycloocta[b]pyridin-2(1H)-one], the inhibition constant Ki on FBS AChE (setting [4]) was found to be 207 µM. On the same count and under the same terms, under `C/C=C1\C2C=C(C)CC1(N)c1ccc(=O)[nH]c1C2CCCC` (stereo not shown) [Compound 8e, (11E)-5-Amino-10-butyl-11-ethylidene-5,6,9,10-tetrahydro-7-methyl-5,9-methanocycloocta[b]pyridin-2(1H)-one] stands 192 µM.

Turning to `CC1=CC2Cc3[nH]c(=O)ccc3C3(C1)NCCCC23` (stereo not shown) [huperzine B], in data set [2], the “usefulness as ACHE inhibitors relative to THA and physostigmine” value was “appear superior to THA and physostigmine”. As to `CNC(=O)Oc1ccc2c(c1)[C@]1(C)CCN(C)[C@@H]1N2C` [physostigmine], in the data set with Alzheimer's disease, the cognitive improvement result is “modest cognitive improvement”. Further, the “maximal duration of AChE inhibitory action” value in the data set on AChE [3] (X. C. Tang et al., 1989) was no more than 60 min. For the same molecule, the side effects entry in the data set with AChE [3] was “considerable side effects”.
